Assay results: publication PMC3066269 (Bioorganic & medicinal chemistry, 2011)

Biological target: hAChE-induced aggregation of Aβ1–40 (Homo sapiens, UniProt P22303)
Assay: hAChE-induced Aβ aggregation inhibition, thioflavin T fluorescence
Format: biochemical
Conditions: 100 μM compound, 50 μM Aβ1–40, 24 h, ThT; NA = Not active

hAChE-induced aggregation of Aβ1–40, sequence (P22303 32-614): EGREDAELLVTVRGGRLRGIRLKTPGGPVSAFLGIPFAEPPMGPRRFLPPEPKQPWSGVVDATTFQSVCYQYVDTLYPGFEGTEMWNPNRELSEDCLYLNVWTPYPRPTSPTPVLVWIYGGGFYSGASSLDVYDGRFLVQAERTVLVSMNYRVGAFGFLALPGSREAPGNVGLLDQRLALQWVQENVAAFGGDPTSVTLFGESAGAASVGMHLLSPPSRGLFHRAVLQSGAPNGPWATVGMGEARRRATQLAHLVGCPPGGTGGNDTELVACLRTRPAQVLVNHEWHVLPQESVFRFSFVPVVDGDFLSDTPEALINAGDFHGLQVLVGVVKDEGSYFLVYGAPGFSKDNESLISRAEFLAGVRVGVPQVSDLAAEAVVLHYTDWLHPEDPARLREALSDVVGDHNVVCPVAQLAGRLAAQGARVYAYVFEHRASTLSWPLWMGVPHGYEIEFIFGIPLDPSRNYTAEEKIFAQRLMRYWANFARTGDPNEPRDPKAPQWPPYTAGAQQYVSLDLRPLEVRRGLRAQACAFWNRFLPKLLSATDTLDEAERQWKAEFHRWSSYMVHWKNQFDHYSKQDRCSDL

**Q.** `c1ccc(CNc2ccnc(N3CCCC3)n2)cc1` [7a, N-Benzyl-2-(pyrrolidin-1-yl)pyrimidin-4-amine] was tested. Which “Inhibition of hAChE-induced aggregation of Aβ1–40 at 100 μM ± SEM” value (shortened to “Inhibition … at 100 μM ± SEM”) did it give?
**A.** did not provide anti-aggregation activity

**Q.** Which “Inhibition … at 100 μM ± SEM” value does the source give for `c1ccc(CNc2ccnc(N3CCSCC3)n2)cc1` [7c, N-Benzyl-2-thiomorpholinopyrimidin-4-amine] here?
**A.** either weak or no anti-aggregation activity

**Q.** How did the “Inhibition … at 100 μM ± SEM” value turn out when `c1ccc(CCNc2ccnc(N3CCSCC3)n2)cc1` [8c, N-Phenethyl-2-thiomorpholinopyrimidin-4-amine] was run?
**A.** either weak or no anti-aggregation activity
